The source made the active and inactive calls. No cut-off for these calls is given here.
Columns and labels:
[1] = target: Nicotinamide phosphoribosyltransferase (Homo sapiens, UniProt P43490); test: Inhibition of recombinant human NAMPT preincubated for 5 mins followed by NAM addition measured for 15 mins by fluorescence based assay
CT26 [2] = test: Antitumor activity against mouse CT26 cells assessed as inhibition of cell viability incubated for 72 hrs by SRB assay; assay type: functional, cell-based; details: CT26, 72 h
B16 [3] = test: Antitumor activity against mouse B16 cells assessed as inhibition of cell viability incubated for 72 hrs by SRB assay; assay type: functional, cell-based; details: B16, 72 h
LN-18 [4] = test: Antitumor activity against human LN-18 cells assessed as inhibition of cell viability incubated for 72 hrs by SRB assay; assay type: functional, cell-based; details: LN-18, 72 h
[5] = Antitumor activity against […] Hepa1-6 cells assessed as inhibition of cell viability incubated for 72 hrs by SRB assay; assay type: functional, cell-based; details: Mus musculus, Hepa1-6, 72 h
CT26 [6] = test: Induction of DNA damage in mouse CT26 cells assessed as increase in gammaH2AX level at 0.1 to 10 uM measured after 12 hrs by immunoblot analysis; assay type: functional, cell-based; details: dose 0.1-10 µM
CT26 [7] = test: Antitumor activity against mouse CT26 cells assessed as decrease in intracellular NAD level upto 10 uM measured for 6 hrs by absorbance based assay; assay type: functional, cell-based
CT26 [8] = test: Induction of DNA damage in mouse CT26 cells assessed as increase in gammaH2AX level at 0.1 to 50 uM incubated for 6 hrs by immunoblot analysis; assay type: functional, cell-based; details: dose 0.1-50 µM
Calf thymus DNA = test: Binding affinity to calf thymus DNA assessed as decrease in fluorescence intensity at 100 to 200 uM by […] displacement assay; assay type: nucleic-acid assay; details: Bos taurus; dose 100-200 µM
A549 = test: Antitumor activity against human A549 cells assessed as inhibition of cell viability at 20 to 80 uM incubated for 48 hrs by CCK8 assay; assay type: functional, cell-based; details: dose 20-80 µM
NCI-H1299 = test: Antitumor activity against human NCI-H1299 cells assessed as inhibition of cell viability at 20 to 80 uM incubated for 48 hrs by CCK8 assay; assay type: functional, cell-based; details: dose 20-80 µM
HCT-116 = test: Antitumor activity against human HCT-116 cells assessed as inhibition of cell viability at 20 to 80 uM incubated for 48 hrs by CCK8 assay; assay type: functional, cell-based; details: dose 20-80 µM
MDA-MB-231 = test: Antitumor activity against human MDA-MB-231 cells assessed as inhibition of cell viability at 20 to 80 uM incubated for 48 hrs by CCK8 assay; assay type: functional, cell-based; details: dose 20-80 µM
HepG2 [9] = test: Antitumor activity against human HepG2 cells assessed as inhibition of cell viability at 20 to 80 uM incubated for 48 hrs by CCK8 assay; assay type: functional, cell-based; details: dose 20-80 µM
PANC-1 = test: Antitumor activity against human PANC-1 cells assessed as inhibition of cell viability at 20 to 80 uM incubated for 48 hrs by CCK8 assay; assay type: functional, cell-based; details: dose 20-80 µM
CT26 [10] = test: Induction of apoptosis in mouse CT26 cells incubated for 48 hrs by Annexin V-FITC/PI staining based flow cytometry; assay type: functional, cell-based; details: dose 10-40 nM
[11] = Stability in mouse microsomes assessed as half life; assay type: ADME, Microsome
CT26 [12] = test: Antitumor activity against mouse CT26 cells allografted in Balb/c mouse model at 2 mg/kg/day, ip for approximately 10 days; assay type: functional, organism-based; details: time 10.0 day
[13] = Toxicity in Balb/c mouse model allografted with mouse CT26 cells assessed as body weight loss at 2 mg/kg/day, ip for approximately 10 days; assay type: organism-based; details: in vivo, 240 h, time 10 day
[14] = Toxicity in C57BL/6 mouse model allografted with mouse B16 cells assessed as body weight loss at 2 mg/kg/day, ip for approximately 10 days; assay type: organism-based; details: in vivo, 240 h, time 10 day
B16 [15] = test: Antitumor activity against mouse B16 cells assessed as decrease in intracellular NAD level at 20 to 100 nM measured after 12 to 24 hrs by absorbance based assay; assay type: functional, cell-based; details: dose 20-100 nM, time 12-24 hrs
HepG2 [16] = test: Antitumor activity against human HepG2 cells assessed as decrease in intracellular NAD level measured for 24 hrs by absorbance based assay; assay type: functional, cell-based; details: dose 0.032-100 µM
[17] = target: Nicotinamide phosphoribosyltransferase (Mus musculus) (UniProt Q99KQ4); test: Binding affinity to NAMPT in mouse B16 cells assessed as increase in thermal stabilization incubated for 3 hrs followed by heating at 46 to 71 degreeC for 3 mins by CETSA assay; assay type: cell-based; details: time 183.0 min
Chain of Nicotinamide phosphoribosyltransferase (Mus musculus) (Q99KQ4 whole entry, looked up): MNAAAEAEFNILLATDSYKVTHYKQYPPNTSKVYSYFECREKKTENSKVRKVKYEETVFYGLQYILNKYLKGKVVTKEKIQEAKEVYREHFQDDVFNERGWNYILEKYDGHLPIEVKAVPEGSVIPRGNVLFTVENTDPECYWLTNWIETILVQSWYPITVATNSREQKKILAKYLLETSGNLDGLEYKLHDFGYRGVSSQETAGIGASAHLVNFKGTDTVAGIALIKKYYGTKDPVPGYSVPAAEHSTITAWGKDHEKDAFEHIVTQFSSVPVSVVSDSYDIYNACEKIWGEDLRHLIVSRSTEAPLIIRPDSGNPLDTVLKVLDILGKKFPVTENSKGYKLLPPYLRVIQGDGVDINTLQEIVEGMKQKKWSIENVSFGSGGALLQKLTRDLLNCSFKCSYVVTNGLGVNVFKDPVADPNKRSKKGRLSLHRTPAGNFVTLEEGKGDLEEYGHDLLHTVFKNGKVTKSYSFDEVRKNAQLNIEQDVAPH

B16 [18] = test: Induction of DNA damage in mouse B16 cells assessed as increase in gammaH2AX level at 100 nM by immunofluorescence staining based analysis; assay type: functional, cell-based; details: time 2-24 hrs
B16 [19] = test: Induction of DNA damage in mouse B16 cells assessed as increase in gammaH2AX level at 100 nM incubated for 24 hrs by immunofluorescence staining based analysis; assay type: functional, cell-based
B16 [20] = test: Induction of DNA damage in mouse B16 cells assessed as increase in gammaH2AX level at 0.1 uM incubated for 24 hrs by immunoblot analysis; assay type: functional, cell-based
B16 [21] = test: Induction of DNA damage in mouse B16 cells assessed as increase in gammaH2AX level at 0.1 uM incubated for 24 hrs by immunofluorescence staining based analysis; assay type: functional, cell-based
B16 [22] = test: Induction of DNA damage in mouse B16 cells assessed as increase in gammaH2AX level at 1 uM incubated for 24 hrs by immunoblot analysis; assay type: functional, cell-based
B16 [23] = test: Antitumor activity against mouse B16 cells assessed as decrease in intracellular NAD level at 20 nM measured after 12 to 24 hrs in presence of olaparib by absorbance based assay; assay type: functional, cell-based; details: time 12-24 hrs
B16 [24] = test: Induction of DNA damage in mouse B16 cells assessed as increase in gammaH2AX level at 20 nM incubated for 24 hrs in presence of olaparib by immunofluorescence staining based analysis; assay type: functional, cell-based
B16 [25] = test: Induction of DNA damage in mouse B16 cells assessed as increase in gammaH2AX level upto 100 nM incubated for 24 hrs in presence of NMN by immunofluorescence staining based analysis; assay type: functional, cell-based
LN-18 [26] = test: Antitumor activity against human LN-18 cells assessed as inhibition of cell viability at 6 nM incubated for 72 hrs in presence of sirtuins inhibitor by crystal violet staining based analysis; assay type: functional
LN-18 [27] = test: Antitumor activity against human LN-18 cells assessed as inhibition of cell viability at 6 nM incubated for 72 hrs in presence of NNMT inhibitor by crystal violet staining based analysis; assay type: functional

Chain of Nicotinamide phosphoribosyltransferase (P43490 whole entry): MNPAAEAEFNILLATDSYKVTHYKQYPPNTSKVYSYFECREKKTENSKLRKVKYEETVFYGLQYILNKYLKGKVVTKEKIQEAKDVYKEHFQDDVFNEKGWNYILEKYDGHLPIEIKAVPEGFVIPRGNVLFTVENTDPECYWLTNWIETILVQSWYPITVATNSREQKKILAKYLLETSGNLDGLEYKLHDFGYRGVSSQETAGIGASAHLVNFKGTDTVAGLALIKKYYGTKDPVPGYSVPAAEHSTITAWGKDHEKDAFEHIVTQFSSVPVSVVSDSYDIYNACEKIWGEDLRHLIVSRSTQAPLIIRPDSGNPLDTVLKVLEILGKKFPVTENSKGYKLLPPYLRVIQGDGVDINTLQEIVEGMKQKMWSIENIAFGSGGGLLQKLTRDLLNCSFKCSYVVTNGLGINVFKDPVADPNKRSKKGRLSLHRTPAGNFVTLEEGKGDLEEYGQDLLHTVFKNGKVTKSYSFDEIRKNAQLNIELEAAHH

O=C(/C=C/c1cccnc1)NCCCCC1CCN(C(=O)c2ccc(N(CCCl)CCCl)cc2)CC1
IC50 [1]: 1.1 nM

O=C(O)CCCc1ccc(N(CCCl)CCCl)cc1 [CHLORAMBUCIL]
IC50 (CT26 [2]): > 1000 nM | IC50 (B16 [3]): > 1000 nM | IC50 (LN-18 [4]): > 1000 nM | IC50 [5]: > 1000 nM

O=C(/C=C/c1cccnc1)NCCCCC1CCN(C(=O)c2ccccc2N(CCCl)CCCl)CC1
IC50 [1]: 0.16 nM | Activity (CT26 [6]): Active | IC50 (CT26 [2]): 53.8 nM | IC50 (B16 [3]): 72.5 nM | IC50 (LN-18 [4]): 31.3 nM | IC50 [5]: 51.6 nM

O=C(/C=C/c1cccnc1)NCCCCC1CCN(C(=O)c2ccccc2)CC1 [DAPORINAD]
IC50 (CT26 [2]): 34.9 nM | IC50 (B16 [3]): 219 nM | IC50 (LN-18 [4]): 33.6 nM | IC50 [5]: 33.6 nM | Activity (CT26 [7]): Active | Activity (CT26 [8]): Active

O=C(/C=C/c1cccnc1)OCCCCC1CCN(C(=O)c2ccc(N(CCCl)CCCl)cc2)CC1
IC50 [1]: 37.5 nM

O=C(/C=C/c1cccnc1)OCCCCC1CCN(C(=O)c2cccc(N(CCCl)CCCl)c2)CC1
IC50 [1]: 3.9 nM

O=C(/C=C/c1cccnc1)NCCCCC1CCN(C(=O)c2cccc(N(CCCl)CCCl)c2)CC1
IC50 [1]: 0.15 nM | Activity (Calf thymus DNA): Active | Activity (CT26 [6]): Active | IC50 (CT26 [2]): 21.8 nM | IC50 (B16 [3]): 52.4 nM | IC50 (LN-18 [4]): 0.7 nM | IC50 [5]: 5.1 nM | inhibition (A549): Active | inhibition (NCI-H1299): Active | inhibition (HCT-116): Active | inhibition (MDA-MB-231): Active | inhibition (HepG2 [9]): Active | inhibition (PANC-1): Active | Activity (CT26 [10]): Dose-Dependent Effect | half-life [11]: 0.935 min | Activity (CT26 [12]): Active | Activity [13]: Non-Toxic | Activity [14]: Non-Toxic | Activity (B16 [15]): Active | Activity (HepG2 [16]): Dose-Dependent Effect | Activity [17]: Active | Activity (B16 [18]): Dose-Dependent Effect | Activity (B16 [19]): Active | Activity (B16 [20]): Active | Activity (B16 [21]): Active | Activity (B16 [22]): Active | Activity (CT26 [7]): Active | Activity (CT26 [8]): Active | Activity (B16 [23]): inactive | Activity (B16 [24]): Active | Activity (B16 [25]): inactive | Activity (LN-18 [26]): Active | Activity (LN-18 [27]): Active

O=C(/C=C/c1cccnc1)OCCCCC1CCN(C(=O)c2ccccc2N(CCCl)CCCl)CC1
IC50 [1]: 1.3 nM
